DBAASP
Values after ≈ are worked out from the molar mass of the structure shown.

Experiments:
Experiment in all cases: ≥ marks a high value that may be exact or a test limit, other limits are often not marked, values filed in µg/mL are converted to µM
[1] = test system: Candida albicans ATCC 2002
[2] = test system: Staphylococcus aureus ATCC 2592
[3] = test system: Pseudomonas aeruginosa ATCC 9027
[4] = test system: Escherichia coli ATCC 25922
[5] = test system: Pseudomonas aeruginosa CMCCB 10104
[6] = test system: Staphylococcus aureus ATCC 25923
Escherichia coli JW0013 = test system: Escherichia coli JW0013
Bacillus subtilis = test system: Bacillus subtilis
[7] = test system: Pseudomonas aeruginosa PAO1
Escherichia coli UB1005 = test system: Escherichia coli UB1005

SMILES	MIC [1] [µM]	MIC [2] [µM]	MIC [4] [µM]	MIC (Escherichia coli JW0013) [µM]	also measured
CC(C)C[C@H](NC(=O)[C@H](CC(C)C)NC(=O)[C@H](Cc1ccccc1)NC(=O)[C@@H]1CCCN1C(=O)[C@H](CC(C)C)NC(=O)[C@@H](N)Cc1ccccc1)C(=O)N[C@@H](CO)C(=O)N[C@@H](C)C(=O)N[C@@H](CC(C)C)C(=O)N1CCC[C@H]1C(=O)N[C@@H](CCCCN)C(=O)N[C@H](C(=O)N[C@@H](Cc1ccccc1)C(=O)N[C@H]1CSSC[C@@H](C(=O)O)NC(=O)[C@H](CCCCN)NC(=O)[C@H](CCCCN)NC(=O)[C@H](CO)NC(=O)[C@H](Cc2ccccc2)NC(=O)[C@H](Cc2ccccc2)NC1=O)C(C)C [FLPFLLSALPKVFCFFSKKC]	≥ 43	8 (≈ 18.7 µg/mL)	16 (≈ 37.3 µg/mL)	–	MIC [3]: 32 µM (≈ 74.7 µg/mL)
CC[C@H](C)[C@H](NC(=O)[C@@H]1CCCN1C(=O)[C@H](CCCN=C(N)N)NC(=O)[C@@H]1CCCN1C(=O)[C@@H](NC(=O)[C@@H]1CCCN1C(=O)[C@H](CC(C)C)NC(=O)[C@@H](N)Cc1ccccc1)[C@@H](C)CC)C(=O)N[C@@H](CC(C)C)C(=O)N[C@@H](CC(C)C)C(=O)NCC(=O)N[C@@H](CC(C)C)C(=O)N[C@@H](CC(C)C)C(N)=O [FLPIPRPILLGLL]	17.1 (≈ 25 µg/mL)	6.84 (≈ 9.99 µg/mL)	20.5 (≈ 30 µg/mL)	–	–
CC[C@H](C)[C@H](NC(=O)CN)C(=O)N[C@@H](CC(C)C)C(=O)NCC(=O)N[C@@H](CC(N)=O)C(=O)N[C@H](C(=O)N[C@H](C(=O)NCC(=O)N[C@@H](CCSC)C(=O)NCC(=O)N[C@@H](CCCCN)C(=O)N[C@@H](CCC(N)=O)C(=O)N[C@H](C(=O)N[C@H](C(=O)N[C@H]1CSSC[C@@H](C(=O)O)NC(=O)[C@H](CC(C)C)NC(=O)CNC(=O)[C@H](CO)NC(=O)[C@H](CC(C)C)NC(=O)CNC1=O)C(C)C)C(C)C)C(C)C)[C@@H](C)CC [GILGNIVGMGKQVVCGLSGLC]	2.53 (≈ 5.1 µg/mL)	–	2.53 (≈ 5.1 µg/mL)	–	MIC [5]: 5.05 µM (≈ 10.2 µg/mL); MIC [6]: 2.53 µM (≈ 5.1 µg/mL)
CC[C@H](C)[C@H](NC(=O)CNC(=O)[C@H](CO)NC(=O)[C@H](CC(C)C)NC(=O)[C@@H](NC(=O)CN)[C@@H](C)CC)C(=O)N[C@@H](CC(C)C)C(=O)NCC(=O)N[C@H](C(=O)NCC(=O)N[C@@H](CCCCN)C(=O)N[C@@H](CCCCN)C(=O)N[C@@H](CC(C)C)C(=O)N[C@H](C(=O)N[C@H]1CSSC[C@@H](C(=O)O)NC(=O)[C@H](CC(C)C)NC(=O)CNC(=O)[C@H](CO)NC(=O)[C@H](CC(C)C)NC(=O)CNC1=O)C(C)C)C(C)C [GILSGILGVGKKLVCGLSGLC]	5.79 (≈ 11.5 µg/mL)	–	5.79 (≈ 11.5 µg/mL)	–	MIC [5]: 11.6 µM (≈ 23 µg/mL); MIC [6]: 2.92 µM (≈ 5.79 µg/mL)
CSCC[C@H](NC(=O)[C@@H](NC(=O)[C@H](CCCCN)NC(=O)[C@H](Cc1cnc[nH]1)NC(=O)[C@H](CC(C)C)NC(=O)CN)C(C)C)C(=O)N[C@@H](CCCN=C(N)N)C(=O)N[C@@H](CCC(=O)O)C(=O)N[C@H](C(=O)N[C@@H](CC(C)C)C(=O)NCC(=O)N[C@@H](Cc1ccc(O)cc1)C(=O)N[C@@H](CCC(=O)O)C(=O)N[C@@H](CCCN=C(N)N)C(=O)N[C@@H](CC(N)=O)C(=O)N[C@@H](CO)C(=O)N[C@@H](Cc1ccc(O)cc1)C(=O)N[C@@H](CCCCN)C(=O)N[C@@H](CCCCN)C(=O)N[C@@H](Cc1ccccc1)C(=O)N[C@@H](Cc1ccccc1)C(=O)N[C@@H](CC(C)C)C(=O)N[C@@H](CCCN=C(N)N)C(=O)O)C(C)C [GLHKVMREVLGYERNSYKKFFLR]	2.61 (≈ 7.5 µg/mL)	1.29 (≈ 3.7 µg/mL)	10.4 (≈ 30 µg/mL)	–	–
CC[C@H](C)[C@H](NC(=O)[C@H](CCCN=C(N)N)NC(=O)[C@H](CCCN=C(N)N)NC(=O)[C@@H]1CCCN1C(=O)[C@@H]1CCCN1C(=O)[C@H](CCCN=C(N)N)NC(=O)[C@@H]1CCCN1C(=O)[C@H](CCCN=C(N)N)NC(=O)[C@@H]1CCCN1C(=O)[C@H](CC(C)C)NC(=O)[C@H](Cc1ccc(O)cc1)NC(=O)[C@@H]1CCCN1C(=O)[C@@H]1CCCN1C(=O)[C@H](CCCCN)NC(=O)[C@H](CC(=O)O)NC(=O)[C@@H]1CCCN1)C(=O)N[C@@H](Cc1ccc(O)cc1)C(=O)N[C@@H](CC(N)=O)C(=O)N[C@@H](CCCN=C(N)N)C(N)=O [PDKPPYLPRPRPPRRIYNR]	–	–	–	2.01 (≈ 4.8 µg/mL)	–
CC[C@H](C)[C@H](NC(=O)[C@H](CCC(N)=O)NC(=O)[C@H](CCCCN)NC(=O)[C@H](Cc1c[nH]c2ccccc12)NC(=O)[C@H](CC(C)C)NC(=O)[C@H](CCC(N)=O)NC(=O)[C@@H]1CCCN1C(=O)[C@H](CC(C)C)NC(=O)[C@H](CCCCN)NC(=O)[C@H](C)NC(=O)[C@H](CCC(=O)O)NC(=O)[C@H](CCCCN)NC(=O)[C@@H](NC(=O)CNC(=O)[C@@H](NC(=O)[C@@H](NC(=O)[C@@H](NC(=O)[C@@H](N)CO)[C@@H](C)CC)[C@@H](C)CC)[C@@H](C)O)[C@@H](C)O)C(=O)N[C@@H](C)C(=O)N[C@H]1CSSC[C@@H](C(=O)O)NC(=O)[C@H]([C@@H](C)O)NC(=O)[C@H](CC(N)=O)NC(=O)[C@H](Cc2ccc(O)cc2)NC(=O)[C@H](CC(C)C)NC(=O)[C@H](CCCN=C(N)N)NC1=O [SIITGTKEAKLPQLWKQIACRLYNTC]	10.1 (≈ 30 µg/mL)	5.03 (≈ 15 µg/mL)	20.1 (≈ 60 µg/mL)	–	MIC (Bacillus subtilis): ≥ 40.3 µM
CC[C@H](C)[C@H](NC(=O)[C@H](CCCN=C(N)N)NC(=O)[C@H](CCCN=C(N)N)NC(=O)[C@@H]1CCCN1C(=O)[C@@H]1CCCN1C(=O)[C@H](CCCN=C(N)N)NC(=O)[C@H](CCCCN)NC(=O)[C@H](CCCN=C(N)N)NC(=O)[C@@H]1CCCN1C(=O)[C@H](CC(C)C)NC(=O)[C@H](CCCN=C(N)N)NC(=O)[C@@H]1CCCN1C(=O)[C@H](CCCCN)NC(=O)[C@H](CCCCN)NC(=O)[C@H](CC(=O)O)NC(=O)[C@@H](N)C(C)C)C(=O)N[C@@H](Cc1ccc(O)cc1)C(=O)N[C@@H](CC(N)=O)C(=O)N[C@@H](CCCN=C(N)N)C(N)=O [VDKKPRLPRKRPPRRIYNR]	–	–	–	0.695 (≈ 1.7 µg/mL)	–
CC[C@H](C)[C@H](NC(=O)[C@H](CCCN=C(N)N)NC(=O)[C@H](CCCN=C(N)N)NC(=O)[C@@H]1CCCN1C(=O)[C@@H]1CCCN1C(=O)[C@H](CCCN=C(N)N)NC(=O)[C@@H]1CCCN1C(=O)[C@H](CCCN=C(N)N)NC(=O)[C@@H]1CCCN1C(=O)[C@H](CC(C)C)NC(=O)[C@@H](NC(=O)[C@@H]1CCCN1C(=O)[C@@H]1CCCN1C(=O)[C@H](CCCCN)NC(=O)[C@H](CC(=O)O)NC(=O)[C@@H](N)C(C)C)C(C)C)C(=O)N[C@@H](Cc1ccc(O)cc1)C(=O)N[C@@H](CC(N)=O)C(=O)N[C@@H](CCCN=C(N)N)C(N)=O [VDKPPVLPRPRPPRRIYNR]	–	–	–	2.06 (≈ 4.8 µg/mL)	–
CC[C@H](C)[C@H](NC(=O)[C@H](CCCN=C(N)N)NC(=O)[C@H](CCCN=C(N)N)NC(=O)[C@@H]1CCCN1C(=O)[C@@H]1CCCN1C(=O)[C@H](CCCN=C(N)N)NC(=O)[C@H](Cc1ccccc1)NC(=O)[C@H](CCCN=C(N)N)NC(=O)[C@@H]1CCCN1C(=O)[C@H](CC(C)C)NC(=O)[C@H](Cc1ccc(O)cc1)NC(=O)[C@@H]1CCCN1C(=O)[C@@H]1CCCN1C(=O)[C@H](CCCCN)NC(=O)[C@H](CC(=O)O)NC(=O)[C@@H](N)C(C)C)C(=O)N[C@@H](Cc1ccc(O)cc1)C(=O)N[C@@H](CC(N)=O)C(=O)N[C@@H](CCCN=C(N)N)C(N)=O [VDKPPYLPRFRPPRRIYNR]	–	–	–	1.97 (≈ 4.8 µg/mL)	–
CC[C@H](C)[C@H](NC(=O)[C@H](CCCN=C(N)N)NC(=O)[C@H](CCCN=C(N)N)NC(=O)[C@@H]1CCCN1C(=O)[C@@H]1CCCN1C(=O)[C@H](CCCN=C(N)N)NC(=O)[C@H](CCCCN)NC(=O)[C@H](CCCN=C(N)N)NC(=O)[C@@H]1CCCN1C(=O)[C@H](CCCN=C(N)N)NC(=O)[C@H](Cc1ccc(O)cc1)NC(=O)[C@@H]1CCCN1C(=O)[C@H](CCCN=C(N)N)NC(=O)[C@H](CCCCN)NC(=O)[C@H](CC(=O)O)NC(=O)[C@@H](N)C(C)C)C(=O)N[C@@H](Cc1ccc(O)cc1)C(=O)N[C@@H](CC(N)=O)C(=O)N[C@@H](CCCN=C(N)N)C(N)=O [VDKRPYRPRKRPPRRIYNR]	–	–	–	0.951 (≈ 2.4 µg/mL)	–
CC[C@H](C)[C@H](NC(=O)[C@H](CCCN=C(N)N)NC(=O)[C@H](CCCN=C(N)N)NC(=O)[C@@H]1CCCN1C(=O)[C@@H]1CCCN1C(=O)[C@H](CCCN=C(N)N)NC(=O)[C@@H]1CCCN1C(=O)[C@H](CCCN=C(N)N)NC(=O)[C@@H]1CCCN1C(=O)[C@H](CC(C)C)NC(=O)[C@H](Cc1ccc(O)cc1)NC(=O)[C@@H]1CCCN1C(=O)[C@@H]1CCCN1C(=O)[C@H](CCCCN)NC(=O)[C@H](CC(N)=O)NC(=O)[C@@H](N)C(C)C)C(=O)N[C@@H](Cc1ccc(O)cc1)C(=O)N[C@@H](CC(N)=O)C(=O)N[C@@H](CCCN=C(N)N)C(N)=O [VNKPPYLPRPRPPRRIYNR]	–	–	–	2.01 (≈ 4.8 µg/mL)	–
CC[C@H](C)[C@H](NC(=O)[C@H](CCCN=C(N)N)NC(=O)[C@H](CCCN=C(N)N)NC(=O)[C@@H]1CCCN1C(=O)[C@@H]1CCCN1C(=O)[C@H](CCCN=C(N)N)NC(=O)[C@@H]1CCCN1C(=O)[C@H](CCCN=C(N)N)NC(=O)[C@@H]1CCCN1C(=O)[C@H](CC(C)C)NC(=O)[C@H](Cc1ccc(O)cc1)NC(=O)[C@@H]1CCCN1C(=O)[C@@H]1CCCN1C(=O)[C@H](CCCCN)NC(=O)[C@H](CCCN=C(N)N)NC(=O)[C@@H](N)C(C)C)C(=O)N[C@@H](Cc1ccc(O)cc1)C(=O)N[C@@H](CC(N)=O)C(=O)N[C@@H](CCCN=C(N)N)C(N)=O [VRKPPYLPRPRPPRRIYNR]	–	–	–	1.36 (≈ 3.3 µg/mL)	MIC [7]: 26.3 µM (≈ 64 µg/mL); MIC (Escherichia coli UB1005): 0.247 µM (≈ 0.6 µg/mL); MIC [6]: 1.64 µM (≈ 4 µg/mL)
